We go through 17 compounds from patent US8648081B2 (Eli Lilly and Company, priority 2011, dated 2014).

The structures appear in SMILES notation. A value given as a limit tells only on which side of the number the result lay.

For this experiment, the system named is Lone star tick larvae (Amblyomma americanum). The experiment is described as follows: In Vitro Larval Immersion Microassay (LIM). The settings on record: read-out: % Efficacy (percent larval mortality). Here is the method:
In Vitro Larval Immersion Microassay (LIM)
The larval immersion microassay may be conducted as described in White, et al., J. Med. Entomol. […] Briefly, experimental test articles are formulated in dimethylsulfoxide (DMSO) to prepare a stock solution at a concentration of 10 mM. […] Approximately 30-50 Lone star tick larvae (Amblyomma americanum) are submerged into each well containing experimental test articles. After a 30 minute immersion period, larvae are removed with a wide-bore pipette tip in 0.05 ml of fluid, dispensed into a commercial paper tissue biopsy bag which is sealed at the top with a plastic dialysis clip, inverted and allowed to air dry for 60 minutes. Bags containing larvae are then incubated at approximately 27 degrees Celsius and >90% relative humidity. After 24 hours, bags are opened, live and dead larvae are counted and percent larval mortality is calculated as follows: % Efficacy=(# dead larvae)/(# total larvae)×100.

Broadly, the mortality is the percentage killed. As for `O=C(N[C@@H]1CCNC1=O)c1sc(C2=NOC(c3cc(Cl)cc(Cl)c3)(C(F)(F)F)C2)c2c1CCCC2` (stereo partly drawn) [Example 32, 3-(5-(3,5-dichlorophenyl)-5-(trifluoromethyl)-4,5-dihydroisoxazol-3-yl)-N—((R)-2-oxopyrrolidin-3-yl)-4,5,6,7-tetrahydrobenzo[c]thiophene-1-carboxamide], the mortality at 300 µM is at least 80%.

Consider `O=C(CNC(=O)c1sc(C2=NOC(c3cc(Cl)cc(Cl)c3)(C(F)(F)F)C2)c2c1CCC2)NCC(F)(F)F` (centres unmarked) [Example 36, 3-(5-(3,5-dichloro-phenyl)-5-(trifluoro-methyl)-4,5-dihydro-isoxazol-3-yl)-N-(2-oxo-2-(2,2,2-trifluoroethylamino)ethyl)-5,6-dihydro-4H-cyclopenta[c] thiophene-1-carboxamide], for which the mortality at 300 µM is at least 80%.

In the case of `O=C(NC1CS(=O)(=O)C1)c1sc(C2=NOC(c3cc(Cl)cc(Cl)c3)(C(F)(F)F)C2)c2c1CCCC2` (centres unmarked) [Example 37, 3-[5-(3,5-Dichloro-phenyl)-5-trifluoro-methyl-4,5-dihydro-isoxazol-3-yl]-4,5,6,7-tetrahydro-benzo[c] thiophene-1-carboxylic acid (1,1-dioxo-thietan-3-yl)-amide], the mortality at 300 µM is at least 80%.

As for `O=C1CCCC(NC(=O)c2sc(C3=NOC(c4cc(Cl)cc(Cl)c4)(C(F)(F)F)C3)c3c2CCCC3)C1` (centres unmarked) [Example 38, 3-(5-(3,5-dichloro-phenyl)-5-(trifluoro-methyl)-4,5-dihydro-isoxazol-3-yl)-N-(3-oxocyclohexyl)-4,5,6,7-tetrahydrobenzo [c]thiophene-1-carboxamide], the mortality at 300 µM was at least 80%.

For `O=C(NC1CCS(=O)(=O)CC1)c1sc(C2=NOC(c3cc(Cl)cc(Cl)c3)(C(F)(F)F)C2)c2c1CCCC2` (centres unmarked) [Example 39, 3-[5-(3,5-Dichloro-phenyl)-5-trifluoro-methyl-4,5-dihydro-isoxazol-3-yl]-4,5,6,7-tetrahydro-benzo [c]thiophene-1-carboxylic acid (1,1-dioxo-hexahydro-116-thiopyran-4-yl)-amide], the mortality at 300 µM was at least 80%.

For the compound `O=C(NC1CCN(CC(F)(F)F)C1=O)c1sc(C2=NOC(c3cc(Cl)cc(Cl)c3)(C(F)(F)F)C2)c2c1CCCC2` (centres unmarked) [Example 40, 3-[5-(3,5-Dichloro-phenyl)-5-trifluoro-methyl-4,5-dihydro-isoxazol-3-yl]-4,5,6,7-tetrahydro-benzo[c] thiophene-1-carboxylic acid [2-oxo-1-(2,2,2-trifluoro-ethyl)-pyrrolidin-3-yl]-amide], the mortality at 300 µM was at least 80%.

`O=C(N[C@@H]1CCNC1=O)c1sc(C2=NOC(c3cc(Cl)cc(Cl)c3)(C(F)(F)F)C2)c2c1CCC2` (stereo partly drawn) [Example 41, 3-(5-(3,5-dichloro-phenyl)-5-(trifluoro-methyl)-4,5-dihydro-isoxazol-3-yl)-N-((R)-2-oxopyrrolidin-3-yl)-5,6-dihydro-4H-cyclopenta[c] thiophene-1-carboxamide]: the mortality at 300 µM is at least 80%.

`N#CCNC(=O)CNC(=O)c1sc(C2=NOC(c3cc(Cl)cc(Cl)c3)(C(F)(F)F)C2)c2c1CCC2` (centres unmarked) [Example 42, N-(2-(cyanomethyl-amino)-2-oxoethyl)-3-(5-(3,5-dichlorophenyl)-5-(trifluoromethyl)-4,5-dihydroisoxazol-3-yl)-5,6-dihydro-4H-cyclopenta[c]thiophene-1-carboxamide]: the mortality at 300 µM is at least 80%.

Consider `C#CCNC(=O)CNC(=O)c1sc(C2=NOC(c3cc(Cl)cc(Cl)c3)(C(F)(F)F)C2)c2c1CCC2` (centres unmarked) [Example 43, 3-(5-(3,5-dichloro-phenyl)-5-(trifluoro-methyl)-4,5-dihydro-isoxazol-3-yl)-N-(2-oxo-2-(prop-2-ynylamino)ethyl)-5,6-dihydro-4H-cyclopenta[c] thiophene-1-carboxamide], for which the mortality at 300 µM is at least 80%.

Regarding `O=C(CNC(=O)c1sc(C2=NOC(c3cc(Cl)c(Cl)c(Cl)c3)(C(F)(F)F)C2)c2c1CCCC2)NCC(F)(F)F` (centres unmarked) [Example 44, N-(2-oxo-2-(2,2,2-trifluoroethylamino)ethyl)-3-(5-(3,4,5-trichlorophenyl)-5-(trifluoromethyl)-4,5-dihydroisoxazol-3-yl)-4,5,6,7-tetrahydrobenzo [c]thiophene-1-carboxamide], the mortality at 300 µM is at least 80%.

For `O=C(N[C@@H]1CCNC1=O)c1sc(C2=NOC(c3cc(Cl)c(Cl)c(Cl)c3)(C(F)(F)F)C2)c2c1CCCC2` (stereo partly drawn) [Example 45, N-((R)-2-oxopyrrolidin-3-yl)-3-(5-(3,4,5-trichlorophenyl)-5-(trifluoromethyl)-4,5-dihydroisoxazol-3-yl)-4,5,6,7-tetrahydrobenzo [c]thiophene-1-carboxamide], the mortality at 300 µM was at least 80%.

With `N#CCNC(=O)CNC(=O)c1sc(C2=NOC(c3cc(Cl)c(Cl)c(Cl)c3)(C(F)(F)F)C2)c2c1CCCC2` (centres unmarked) [Example 46, N-(2-(cyanomethyl-amino)-2-oxoethyl)-3-(5-(3,4,5-trichloro-phenyl)-5-(trifluoro-methyl)-4,5-dihydro-isoxazol-3-yl)-4,5,6,7-tetrahydrobenzo [c]thiophene-1-carboxamide], the mortality at 300 µM is at least 80%.

As for `C#CCNC(=O)CNC(=O)c1sc(C2=NOC(c3cc(Cl)c(Cl)c(Cl)c3)(C(F)(F)F)C2)c2c1CCCC2` (centres unmarked) [Example 47, N-(2-oxo-2-(prop-2-ynylamino)ethyl)-3-(5-(3,4,5-trichlorophenyl)-5-(trifluoromethyl)-4,5-dihydroisoxazol-3-yl)-4,5,6,7-tetrahydro-benzo[c]thiophene-1-carboxamide], the mortality at 300 µM is at least 80%.

As to `O=C(CNC(=O)c1sc(C2=NOC(c3cc(Cl)c(F)c(Cl)c3)(C(F)(F)F)C2)c2c1CCCC2)NCC(F)(F)F` (centres unmarked) [Example 48, 3-(5-(3,5-dichloro-4-fluorophenyl)-5-(trifluoromethyl)-4,5-dihydroisoxazol-3-yl)-N-(2-oxo-2-(2,2,2-trifluoroethyl-amino)ethyl)-4,5,6,7-tetrahydrobenzo [c]thiophene-1-carboxamide], the mortality at 300 µM is at least 80%.

In the case of `O=C(N[C@@H]1CCNC1=O)c1sc(C2=NOC(c3cc(Cl)c(F)c(Cl)c3)(C(F)(F)F)C2)c2c1CCCC2` (stereo partly drawn) [Example 49, 3-(5-(3,5-dichloro-4-fluorophenyl)-5-(trifluoromethyl)-4,5-dihydroisoxazol-3-yl)-N-((R)-2-oxopyrrolidin-3-yl)-4,5,6,7-tetrahydro-benzo[c]thiophene-1-carboxamide], the mortality at 300 µM was at least 80%.

Take `N#CCNC(=O)CNC(=O)c1sc(C2=NOC(c3cc(Cl)c(F)c(Cl)c3)(C(F)(F)F)C2)c2c1CCCC2` (centres unmarked) [Example 50, N-(2-(cyanomethyl-amino)-2-oxoethyl)-3-(5-(3,5-dichloro-4-fluorophenyl)-5-(trifluoromethyl)-4,5-dihydroisoxazol-3-yl)-4,5,6,7-tetrahydrobenzo [c]thiophene-1-carboxamide]: the mortality at 300 µM was at least 80%.

As to `C#CCNC(=O)CNC(=O)c1sc(C2=NOC(c3cc(Cl)c(F)c(Cl)c3)(C(F)(F)F)C2)c2c1CCCC2` (centres unmarked) [Example 51, 3-(5-(3,5-dichloro-4-fluorophenyl)-5-(trifluoromethyl)-4,5-dihydroisoxazol-3-yl)-N-(2-oxo-2-(prop-2-ynylamino)ethyl)-4,5,6,7-tetrahydro-benzo[c]thiophene-1-carboxamide], the mortality at 300 µM was at least 80%.
